According to patent US9248131B2, “Aquaporin modulators and methods of using them for the treatment of edema and fluid imbalance” (THE ARIZONA BOARD OF REGENTS ON BEHALF OF THE UNIVERSITY OF …, priority 2006, dated 2016):

Key:
[1] = system: cerebral ischemia (MCAO model); experiment: Middle cerebral artery occlusion (MCAO) model, 1 h ischemia and 24 h reperfusion; format: in vivo, mice; settings: 60 mg/kg intravenous single bolus 10 min before reperfusion, 1 h ischemia
From the text: Anatomical measures of infarct size, brain volume, neurological assessments, and mortality rate can be used to assess the consequences of middle cerebral artery occlusion (MCAO) model in mice. The rodent MCAO model, an accepted model of cerebral ischemia and reperfusion (Clark et al., 1997), uses a silicone-coated filament to promote cerebral artery occlusion (Migliati et al., 2001). An innovative method to measure effective occlusion in real time is by laser Doppler monitoring of blood flow rate
Typical procedure for MCAO model in mice: Wild-type C57BL/6J male mice at 9-11 weeks old are anesthetized, and cerebral blood flow is recorded as baseline using laser Doppler. The monofilament is placed in the internal common carotid and advanced to the ostia of the middle cerebral artery. […] After 24 h, animals are evaluated for neurological, behavioral, and general deficits, and then sacrificed for anatomical analysis of the infarcted and contralateral control hemispheres. […]
FIG. 6 illustrates cerebral edema and infarct size in mice subjected to one hour of ischemia and 24 hours of reperfusion, with and without bumetanide (60 mg/kg) administered intravenously in a single bolus at 10 min before reperfusion. Stained with 2% TTC, the infarcted area is white; areas are analyzed using morphometric software by researchers blinded to the treatment group.

[2] = target: T1, Na—K—Cl cotransporter (NKCC1) (Mus musculus, UniProt P55012); settings: read-out: IC50 (half-maximal blocking concentration) against Na—K—Cl cotransporter; mouse kidney collecting duct cell line; cited from earlier work
T1 sequence (P55012 1-1205): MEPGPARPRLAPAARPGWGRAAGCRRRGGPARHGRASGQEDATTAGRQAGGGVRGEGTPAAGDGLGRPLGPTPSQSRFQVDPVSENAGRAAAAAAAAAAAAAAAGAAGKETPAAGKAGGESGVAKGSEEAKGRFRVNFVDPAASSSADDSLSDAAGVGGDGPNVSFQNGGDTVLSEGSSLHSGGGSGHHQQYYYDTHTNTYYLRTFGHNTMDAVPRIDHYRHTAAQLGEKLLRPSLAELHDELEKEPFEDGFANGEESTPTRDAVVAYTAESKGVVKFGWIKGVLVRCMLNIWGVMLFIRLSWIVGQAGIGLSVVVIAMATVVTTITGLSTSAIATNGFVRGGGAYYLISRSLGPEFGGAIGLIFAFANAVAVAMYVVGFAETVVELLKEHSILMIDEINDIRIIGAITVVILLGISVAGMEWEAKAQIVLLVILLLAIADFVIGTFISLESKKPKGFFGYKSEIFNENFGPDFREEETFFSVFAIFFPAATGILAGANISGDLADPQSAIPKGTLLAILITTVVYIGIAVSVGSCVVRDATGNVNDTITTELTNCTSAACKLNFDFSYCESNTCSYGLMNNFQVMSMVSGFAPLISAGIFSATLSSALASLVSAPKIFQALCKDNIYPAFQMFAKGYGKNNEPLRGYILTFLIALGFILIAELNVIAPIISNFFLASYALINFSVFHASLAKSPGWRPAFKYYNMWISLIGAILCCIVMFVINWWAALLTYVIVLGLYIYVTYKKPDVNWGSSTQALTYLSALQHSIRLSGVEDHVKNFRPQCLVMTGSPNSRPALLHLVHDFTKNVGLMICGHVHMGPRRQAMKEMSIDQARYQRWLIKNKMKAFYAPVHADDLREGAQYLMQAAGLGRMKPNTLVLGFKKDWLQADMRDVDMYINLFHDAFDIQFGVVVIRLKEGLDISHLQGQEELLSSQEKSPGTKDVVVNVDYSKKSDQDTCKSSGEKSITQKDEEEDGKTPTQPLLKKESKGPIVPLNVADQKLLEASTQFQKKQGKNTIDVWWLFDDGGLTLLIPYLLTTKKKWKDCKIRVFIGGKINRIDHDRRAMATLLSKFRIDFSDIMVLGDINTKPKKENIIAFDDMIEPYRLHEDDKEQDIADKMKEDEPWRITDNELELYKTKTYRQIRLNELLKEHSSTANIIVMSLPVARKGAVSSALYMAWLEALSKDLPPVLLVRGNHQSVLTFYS

[3] = system: ischemia-induced cerebral edema (MCAO); settings: cited from earlier work
AQP4-expressing oocytes = target: T2, AQP4-expressing oocytes (Homo sapiens, UniProt P55087); experiment: Simple screen: time to oocyte bursting in hypotonic saline; format: cell-based; settings: 100 μM; AQP4-expressing oocytes preincubated 10-15 min, then 100 mOsm saline
T2 construct: expressed in transfected cells; host or cells: Xenopus oocytes
T2 sequence (P55087 whole entry, species assumed): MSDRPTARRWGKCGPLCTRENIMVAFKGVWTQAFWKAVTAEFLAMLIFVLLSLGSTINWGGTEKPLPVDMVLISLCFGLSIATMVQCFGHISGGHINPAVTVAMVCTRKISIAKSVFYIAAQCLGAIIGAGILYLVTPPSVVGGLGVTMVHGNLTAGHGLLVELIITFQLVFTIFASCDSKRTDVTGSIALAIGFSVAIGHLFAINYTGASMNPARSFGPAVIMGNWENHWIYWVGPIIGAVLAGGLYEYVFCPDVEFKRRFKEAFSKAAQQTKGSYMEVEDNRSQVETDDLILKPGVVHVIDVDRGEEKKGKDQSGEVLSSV
Description: The composition of the library for initial AQP channel screening included various channel, transporter and receptor blocking compounds based on intuition and from clues regarding clinical side effects that involved water transporting tissues. In a simple screen (FIG. 1), control and AQP4-expressing oocytes were preincubated in isotonic saline (100 mM NaCl; 5 mM MgCl2; 5 mM HEPES, pH 7.3; ˜200 mOsm) containing the test compound for 10-15 min before each experiment; then the time to oocyte bursting (physical explosion) after transfer to 100 mOsm saline was monitored visually. […] Block was evident in the increased time required for bursting in hypotonic saline.

AQP4 = target: T3, AQP4 (Homo sapiens, UniProt P55087); experiment: Oocyte swelling assay: water permeability (Pf) of AQP4-expressing oocytes by videomicroscopy, block or % stimulation; format: cell-based
T3 construct: expressed in transfected cells; host or cells: Xenopus oocytes
T3 sequence (P55087 whole entry, species assumed): as above
From the text: A method for screening compounds for their ability to modulate aquaporin activity based on a water permeability assay in Xenopus oocytes expressing aquaporins which is used to identify, assess, and characterize compounds that either block or stimulate the aquaporin channels including AQP1, AQP4 and AQP9 channels.
Selection rationale and methodology. The ability of compounds, analogs and/or agents to block an aquaporin channel was quantified by videomicroscopic analyses of cross-sectional area of AQP-expressing oocytes as a function of time in a defined osmotic gradient, allowing the calculation of the water permeability factor (Pf), statistical evaluation of significant differences in the rate of water entry, and definition of dose response curves with IC50 values (concentration required for half-maximal block).
This compound evaluation method has been utilized with AQP1,-4,-5, and -9 channels. Observations of channel stimulation were made using the same assay method, however, the results were reported as % stimulation over control at a given concentration. […] TEA is known as a blocker of K^+ channel subtypes and nicotinic acetylcholine receptors. TEA sensitivity of AQP1 was removed by site-directed mutagenesis of tyrosine 186 to phenylalanine (Y186F) in the outer vestibule of the water pore, and confirmed that the inhibitory action of TEA is not due to nonspecific effects on endogenous channels (Brooks et al., 2000).

For `CCCCNc1cc(C(=O)O)cc(S(N)(=O)=O)c1Oc1ccccc1` [bumetanide], the “cerebral edema and infarct size, statistical significance (p<0.06)” value [1] is given as “does not meet criteria, but indicates promise”, the IC50 [2] is given as 330 nM and the ischemia-induced cerebral edema ([3]; 30-mg/kg dose, rats, MCAO) is given as “effectively reduced ischemia-induced cerebral edema”. For the same compound, the “edema formation, magnetic resonance diffusion-weighted imaging” value ([3]; intravenous, first 3 hours of MCAO-induced cerebral ischemia) was “reduced edema formation”, the lowest effective dose ([3]; rats, MCAO, reduction of edema) was 7.6 mg/kg and the “time to oocyte bursting” value (AQP4-expressing oocytes) was “significantly delayed bursting time”. For the same compound, the “block of swelling rate in AQP4-expressing oocytes” value (AQP4; extracellular application) was “Dose-dependent block” and the “block of swelling in AQP4-expressing oocytes” value (AQP4; internal injection into the oocyte (intracellular)) was “improved block at lower concentrations”.
